In a melting point compilation (Tetko et al.; mined from patent text by program, amines drawn as free bases though some values may be those of a salt):

Work on `OCc1cc(Cl)c(Cl)cc1CO` yielded a melting point of 128 to 136 °C. For `COC(=O)c1ccc2c(c1)c1cc(-c3ccc(CN4CCOCC4)cc3)c(=O)n(C)c1n2C`, the melting point was 175 °C. Compound `CCCCc1nc2cc(C(=O)O)ccc2n1Cc1ccc(-c2ccccc2-c2nnn[nH]2)cc1` has a melting point of 180 to 182 °C. `COc1ccccc1C(=O)N(c1ccccc1)c1ccc(OCCN(C)C)cc1` gave a melting point of 82.5 to 85.5 °C. In the case of `Cc1noc(C2CN3CCC2CC3)n1` (stereo not given), the melting point is reported as 112 to 115 °C. Work on `CCc1cc(-c2ccc(Cl)cc2)nc2c(C(=O)Nc3cccc(S(N)(=O)=O)c3)cnn12` yielded a melting point of 252 to 253 °C. For `COc1ccc(-c2ccc3c(c2)c2c(Cl)ccnc2n3S(=O)(=O)c2ccccc2)cc1`, the melting point was 209 to 211 °C. Compound `O=CNc1nc(S(=O)(=O)Nc2c(F)cccc2F)n[nH]1` has a melting point of 258 to 260 °C. For `COc1cc2ncnc(N3CCc4ccc(Cl)cc43)c2cc1Cl`, the melting point was 226 °C. Compound `O=C(NCCCCCCOC(=O)N1CCC(OC(=O)Oc2ccc([N+](=O)[O-])cc2)CC1)Oc1ccc(Oc2ccccc2)cc1` has a melting point of 93 to 94 °C. With `CC1Cc2cccc(-c3cccc4ccccc34)c2C1=O` (stereo not given) the melting point was 104 to 105 °C. With `CCN1c2ncc(C=Cc3cccc(F)c3)cc2C(=O)N(C)c2ccc(Cl)nc21` the melting point was 130 to 131 °C. Work on `COc1cc(C(=O)COC(C)=O)ccc1O` yielded a melting point of 115 to 117 °C. `O=[N+]([O-])c1ccc2c(c1)C(c1ccccc1F)=[N+]([O-])C(CCl)N2` (stereo not given) showed a melting point of 220 to 224 °C. `C/C(=C\c1ccc(CO)cc1)c1ccc2c(c1)C(C)(C)C(O)CC2(C)C` (stereo not given) showed a melting point of 182 to 183 °C. Work on `Cc1cc(SC2=C(O)CC(CCc3ccccn3)(C(C)C)OC2=O)c(C(C)(C)C)cc1CO` (stereo not given) yielded a melting point of 100 to 110 °C. `COc1nc(Cl)cnc1N(C(=O)OCC(C)C)S(=O)(=O)c1ccccc1-c1ccc(OC2CCCCO2)cc1` (stereo not given) gave a melting point of 142 to 143 °C. With `COC(=O)c1ccc(CNC(C)=O)cc1S(N)(=O)=O` the melting point was 173 to 175 °C. In the case of `Fc1ccc([C@@]2(Cn3nc[nH]c3=S)O[C@@H]2c2ccccc2F)c(F)c1` (relative stereo), the melting point is reported as 144 to 148 °C. In the case of `Cn1c(C(F)(F)F)cc(=O)n(-c2ccc(Cl)c(C=CC#N)c2)c1=O`, the melting point is reported as 263 to 265 °C. For `Fc1cccc(COc2ccc(Nc3ncnc4cc(C#Cc5nccs5)sc34)cc2Cl)c1`, the melting point was 235 °C. Compound `C[C@H](N)C(=O)NC1N=C(C2CCCCC2)c2ccccc2N(C)C1=O` (stereo not given in full) has a melting point of 205 to 206 °C. Compound `Cc1nc(N2CCc3ccccc3CC2)c(C#N)c(=O)n1N(C)C` has a melting point of 134 to 136 °C. `CN(C)CCc1ccc(NC=O)c2[nH]ncc12` gave a melting point of 210 to 211 °C. For `CCCc1c(OCCCOc2ccc(C(C)=O)c(OCCCC(=O)OCC)c2CCC)ccc(C(C)=O)c1O`, the melting point was 77 to 79 °C. For `FC(F)(F)c1nnc2c3cc4c(cc3ccn12)OCO4`, the melting point was 187 to 189 °C. Work on `CSCC(=O)c1ccc(O)c(O)c1` yielded a melting point of 107 °C. `COC(=O)c1ccc(C(c2ccccc2)(c2ccccc2)c2ccccc2)cn1` gave a melting point of 160 to 164 °C. `CC1(C2CCCC2)Cc2cc(NCC(=O)O)c(Cl)c(Cl)c2C1=O` (stereo not given) showed a melting point of 199 to 200 °C. `C#Cc1cc2cccnc2c(-c2cccc([N+](=O)[O-])c2)n1` gave a melting point of 215 °C. Compound `COc1cc(/C=C/CO)cc(OC)c1OCc1ccccc1` has a melting point of 72 to 73 °C. `COC(=O)C=C(C)c1ccc(CC(C)(C)NCC(O)c2ccccc2)cc1` (stereo not given) gave a melting point of 98 to 103 °C. `CCCCCCCC/C=C\CCCCCCCC(O)CCCNC(=O)CCNC(C)=O` (stereo not given) gave a melting point of 103 to 108 °C. `O=C(Cc1ccccc1I)Nc1ccccc1I` gave a melting point of 160 to 163 °C. In the case of `CCNc1ccc(C(N)=O)cc1[N+](=O)[O-]`, the melting point is reported as 226 °C. Work on `Cc1cc(C)n2nc(-c3ccccc3)c(CC(=O)N(C)C)c2n1` yielded a melting point of 171 to 172 °C. With `CCOC(=O)C(OCc1ccc(-c2ccc(Cl)cc2)cc1)(C(F)(F)F)C(F)(F)F` the melting point was 62 to 62.5 °C. `COc1c(C)cccc1C(=N)N` showed a melting point of 72 to 74 °C. `COc1ccc(NC(=O)NC(=O)Oc2ccccc2)cc1OC` showed a melting point of 140 to 142 °C. `Cc1cc(NC(=O)Oc2ccc([N+](=O)[O-])cc2)cc(C(F)(F)F)c1` showed a melting point of 136 to 138 °C. `CCOCc1nc2c(N)nc3ccccc3c2n1CC1(NC(=O)OC(C)(C)C)CCCCC1` showed a melting point of 82 to 92 °C. For `O=C(O)c1cn2c3c(c(N4CCN(Cc5ccccc5)CC4)ccc3c1=O)CCC2`, the melting point was 274 to 278 °C. In the case of `CS(=O)(=O)c1ccc(C(Cc2ccccc2F)C(=O)Nc2nc3ccccc3o2)cc1` (stereo not given), the melting point is reported as 99 to 100 °C. `O=c1[nH]c2ncc(-c3ccc(O)nc3)nc2n1CC1CCCCC1` showed a melting point of over 400 °C. `CC(C)n1nc(-c2c(-c3ccccc3)nn3ccc(OCC(=O)NC4CCC(O)CC4)cc23)ccc1=O` (stereo not given) gave a melting point of 146 to 148 °C. Work on `Cc1[nH]c2ccccc2c1CCN1CCN(N)CC1` yielded a melting point of 118 to 120 °C. Work on `CCCCCC(CCn1ccnc1)Sc1ccc(C(C)(C)C)cc1` (stereo not given) yielded a melting point of 192 to 193 °C. With `CCOc1nc(-c2ccc(Cl)cc2)c(CCC(=O)O)o1` the melting point was 148 to 149 °C. For `Cc1cc(N2CCN(Cc3ccc(F)cc3)C2=O)sc1C(=O)NCc1cccs1`, the melting point was 128 to 131 °C. Work on `O=[N+]([O-])c1ccc2c(c1)[nH]c1cc([N+](=O)[O-])ccc12` yielded a melting point of over 300 °C. Work on `CC1(CO)Cc2ccccc2C1(C)C` (stereo not given) yielded a melting point of 48 to 50 °C. In the case of `CCOC(=O)C=Cc1cn(CCCC2(C)OCCO2)c2ccccc12`, the melting point is reported as 61 to 62 °C. Work on `O=C(OC1CCCC1)c1cc([N+](=O)[O-])c(F)cc1Cl` yielded a melting point of 44 to 45 °C. Compound `Cc1cc(O)cc(N(C)C)c1` has a melting point of 67 to 68 °C. Compound `ClCc1cc(OCc2ccc3ccccc3n2)no1` has a melting point of 126 to 127 °C. With `CSCCOc1ccc(-c2coc3ccc(-c4nnc(C)o4)cc23)cc1` the melting point was 89 to 90 °C. Compound `COC(=O)c1nc(Cl)c(F)c(N)c1SC` has a melting point of 75 to 77 °C. Compound `COc1cc2c(cc1Nc1ncc(Cl)c(N[C@@H]3CCCC[C@H]3NS(C)(=O)=O)n1)CCN(CC(=O)N1CCCC1)CC2` has a melting point of 120 to 135 °C. Work on `O=S(=O)(c1ccc(Cl)cc1)C(CCl)Sc1ccc(Br)cc1` (stereo not given) yielded a melting point of 76 to 78 °C. With `Cc1cc(-c2ccc(S(C)(=O)=O)cc2)n(-c2ccc(F)cc2)c1Cl` the melting point was 151 to 154 °C. For `CCC(CO)Nc1nc(NCc2cccc(OC)c2O)c2ncn(C(C)C)c2n1` (racemic), the melting point was 120 to 122 °C. `Cc1ccc2c(c1)CN(C)C(=O)CC2` showed a melting point of 75 to 76 °C. With `CCCCC(Sc1cc(C(C)(C)C)c(O)c(C(C)(C)C)c1)C(=O)O` (stereo not given) the melting point was 140 to 142 °C. For `CCOC(=O)c1nn(CC)c2nccc(O)c12`, the melting point was 85 to 87 °C. `CCCC[C@]1(CC)CS(=O)(=O)c2cc3c(cc2[C@@H](c2ccccc2)N1)OCO3` showed a melting point of 71 to 73 °C. `COc1cc(OC)c2c3c(C(N)=O)cccc3n(Cc3ccccc3)c2c1` gave a melting point of 240 to 243 °C. For `CCOc1ccc(N(c2ccccc2)C2(c3ccc(N(CC)Cc4ccccc4)cc3)OC(=O)c3ccccc32)cc1` (stereo not given), the melting point was 163 to 173 °C. For `CCCc1nc2ccccc2[nH]1`, the melting point was 160 to 162 °C. `COc1c(C)c(NC(=O)CC(C)(C)C)c(C)c2c1OCC2c1ccc(C(C)C)cc1` (stereo not given) showed a melting point of 150 to 151 °C. Compound `O=C(O)c1cn(C2CC2)c2c(F)c(N3CCCC(n4ccnn4)C3)c(F)cc2c1=O` (stereo not given) has a melting point of 239 to 240 °C. `O=C1CCCc2c1ccc(OCc1ccccc1)c2Cl` gave a melting point of 99 to 100 °C. For `CCCC(=O)Nc1c(C)c2c(c(C(C)c3ccc(C(C)C)cc3)c1C)OCC2` (stereo not given), the melting point was 152 to 153 °C. `O=C1CCn2c(CCc3ccccc3)nc3cccc1c32` gave a melting point of 112 to 113 °C. For `CCN1CC(OCC2CCC2)(C(F)(F)F)c2cc(F)ccc2NC1=O` (stereo not given), the melting point was 137 to 138 °C. In the case of `Cc1conc1-c1nnc2c3ccccc3c(OCc3ccccn3)nn12`, the melting point is reported as 164 °C. In the case of `CC(=O)OC1CSC(Oc2ccncc2)C(OC(C)=O)C1OC(C)=O` (stereo not given), the melting point is reported as 152 to 158 °C. Work on `CS(=O)(=O)OCCc1cc(Nc2ncc3c(n2)-c2ccccc2[C@H](c2ccccc2F)C3)ccc1F` yielded a melting point of 99 to 100 °C. In the case of `COC(=O)C=Cc1cc(C(=O)O)ccc1NC(=O)NC(=O)c1cc(F)c(F)cc1Cl`, the melting point is reported as 99 °C. `CC(=O)Nc1c(C(=O)c2ccc(C)cc2)[nH]c2cc(Cl)ccc12` gave a melting point of 140 to 143 °C. Work on `CC(=O)Nc1cc(C(=O)OCCN2CCCCC2)c2oc(-c3ccccc3)cc2c1` yielded a melting point of 172 to 174 °C. `Cc1nc(-c2nccs2)c2nc(-c3ccccc3)cc-2[nH]1` showed a melting point of 248 to 250 °C. Compound `O=C(Nc1cccc(Nc2nc(-c3cccnc3)cs2)c1)c1ccc(/C=C/ONO)s1` has a melting point of 206 °C. `CNC(=O)C1CCc2ccccc21` (stereo not given) gave a melting point of 107 to 109 °C. With `Oc1ccc2oc(-c3cccc(O)c3O)nc2c1` the melting point was 239 to 241 °C. `CCOC(=O)c1ccccc1OCC(O)COc1ccc(F)cc1` (stereo not given) showed a melting point of 112 to 114 °C. `COc1ccc(C(=O)Nc2ccc3ccc(-c4ccccc4)nc3n2)cc1` gave a melting point of 187 °C. In the case of `Cc1cc(Br)cnc1CCCCNc1ncc(Cc2cccnc2)cc1O`, the melting point is reported as 164 to 166 °C. Compound `CC(O)Cn1nc(Br)c([N+](=O)[O-])c1NCc1ccccc1` (stereo not given) has a melting point of 81.3 °C. With `O=C(CCl)NCc1ccc(-c2cc3c(Nc4ccc(F)c(Cl)c4)ncnc3[nH]2)cc1` the melting point was 320 to 325 °C. With `CC(C)[C@@H]1NC(=O)OC1(c1ccccc1)c1ccccc1` the melting point was 250 to 251 °C. In the case of `Oc1ccc(OCCOc2ccccc2)cc1`, the melting point is reported as 156 °C. Work on `CCN(CCNC(=O)c1n[nH]cc1NC(=O)c1cccc(C)n1)c1cccc(C)c1` yielded a melting point of 203 to 205 °C. Compound `CCOC(=O)N1CCC(=C2c3sccc3C=Cn3ccnc32)CC1` has a melting point of 176 °C. With `O=Cc1cnn2c(-c3cccc(C(F)(F)F)c3)ccnc12` the melting point was 168 to 170 °C. Work on `CC1=C(C(=O)OC(C)C)C(c2cccc([N+](=O)[O-])c2)C(C(=O)C(C)S(=O)(=O)NC(C)C)=C(C)N1` (stereo not given) yielded a melting point of 117 to 120 °C. `CCCn1cc2c(C3C(=O)Nc4ccc(C#N)cc43)nc(NCCc3cccnc3)nc2n1` (stereo not given) gave a melting point of 302 to 305 °C. `CCOP(=O)(OCC)SCc1ccc(-c2nc(S)c3cc(Br)ccc3n2)cc1` gave a melting point of 196 to 199 °C. `Cn1c(=O)c(=O)[nH]c2cc([N+](=O)[O-])ccc21` gave a melting point of 356 °C. In the case of `CCc1ccc2c(c1)NC(=S)C2=O`, the melting point is reported as 213 to 214 °C. `Cc1ccc(C(F)(F)F)cc1-c1ccc(S(=O)(=O)N2c3ccccc3CC2C(=O)NCCOc2ccc(CC(=O)O)cc2)cc1` (stereo not given) showed a melting point of 80 to 84 °C.
